Test results reported in patent US11834453B2, “Substituted pyrimido[5,4-d]pyrimidines as HER2 inhibitors” (Array BioPharma Inc., priority 2020, dated 2023).
Read-outs that look alike come from different tables or passages of the source.

Columns and labels:
ErbB2 WT = ErbB2 WT (Homo sapiens (Human), UniProt P04626); test: ErbB enzyme assay (CisBio HTRF KinEASE-TK), Assay 2; assay type: biochemical
Outline: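 Readout is HTRF KinEASE-TK, using Sa-XL665 and cryptate antibody for 1 h at 22 °C, as percent of control between DMSO-only (100) and pre-quenched (0) reactions. The kinase reaction runs 30 min at 22 °C with 1 mM ATP and 250 nM biotinylated TK substrate, in HEPES pH 7.4 with MgCl2 and 2% DMSO.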

[1] = biological target: ErbB2 with Exon 20 YVMA insertion (HER2-YVMA) (Homo sapiens (Human), UniProt P04626, INS775YVMA); test: Cellular phosphorylation assay, constitutive ErbB2 phosphorylation (Y1196) in engineered NIH 3T3 cells, Assay 4; assay type: cell-based
ErbB2 with Exon 20 YVMA insertion (HER2-YVMA), sequence (P04626 other isoform, or with tags, fused parts or gaps ins YVMA behind 775): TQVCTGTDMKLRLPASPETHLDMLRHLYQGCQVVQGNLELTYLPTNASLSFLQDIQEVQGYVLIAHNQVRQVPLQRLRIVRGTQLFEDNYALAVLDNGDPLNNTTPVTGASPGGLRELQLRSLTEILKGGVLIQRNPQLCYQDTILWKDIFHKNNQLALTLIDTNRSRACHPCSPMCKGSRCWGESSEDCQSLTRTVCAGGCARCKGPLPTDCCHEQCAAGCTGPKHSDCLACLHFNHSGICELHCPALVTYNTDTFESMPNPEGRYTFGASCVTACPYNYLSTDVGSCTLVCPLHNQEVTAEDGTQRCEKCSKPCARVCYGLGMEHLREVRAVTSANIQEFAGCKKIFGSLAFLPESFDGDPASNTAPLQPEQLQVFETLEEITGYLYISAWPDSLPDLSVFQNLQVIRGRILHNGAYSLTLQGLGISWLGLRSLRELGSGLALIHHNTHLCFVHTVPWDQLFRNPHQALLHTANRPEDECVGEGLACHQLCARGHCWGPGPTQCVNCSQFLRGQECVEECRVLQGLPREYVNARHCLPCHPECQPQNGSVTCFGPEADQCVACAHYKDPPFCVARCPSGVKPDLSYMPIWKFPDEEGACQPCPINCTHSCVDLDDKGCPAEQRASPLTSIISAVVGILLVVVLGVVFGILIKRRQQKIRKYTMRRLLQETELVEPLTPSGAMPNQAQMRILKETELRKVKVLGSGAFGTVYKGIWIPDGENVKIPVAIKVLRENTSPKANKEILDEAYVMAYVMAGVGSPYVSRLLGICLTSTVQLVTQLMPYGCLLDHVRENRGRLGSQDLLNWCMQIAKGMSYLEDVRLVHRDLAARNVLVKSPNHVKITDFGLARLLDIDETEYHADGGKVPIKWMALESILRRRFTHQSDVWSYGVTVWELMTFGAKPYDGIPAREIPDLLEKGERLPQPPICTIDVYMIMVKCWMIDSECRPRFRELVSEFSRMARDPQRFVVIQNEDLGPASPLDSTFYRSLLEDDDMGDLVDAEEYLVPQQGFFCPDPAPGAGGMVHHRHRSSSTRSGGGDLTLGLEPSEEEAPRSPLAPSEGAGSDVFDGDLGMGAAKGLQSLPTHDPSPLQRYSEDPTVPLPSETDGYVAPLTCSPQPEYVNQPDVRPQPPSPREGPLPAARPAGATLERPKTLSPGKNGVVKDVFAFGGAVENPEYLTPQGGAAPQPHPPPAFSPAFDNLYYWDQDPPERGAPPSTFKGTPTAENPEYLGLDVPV
Outline: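 In-cell Western in NIH 3T3 cells carrying ErbB2 exon 20 YVMA insertion, with no ligand stimulation. One hour compound exposure at 37 °C before fixation and anti-pY1196 plus GAPDH staining with dual-wavelength fluorescence. IC50 derived after GAPDH normalization.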

EGFR = EGFR (Homo sapiens (Human), UniProt P00533); test: ErbB enzyme assay (CisBio HTRF KinEASE-TK), Assay 3; assay type: biochemical
EGFR, sequence (P00533 25-1210): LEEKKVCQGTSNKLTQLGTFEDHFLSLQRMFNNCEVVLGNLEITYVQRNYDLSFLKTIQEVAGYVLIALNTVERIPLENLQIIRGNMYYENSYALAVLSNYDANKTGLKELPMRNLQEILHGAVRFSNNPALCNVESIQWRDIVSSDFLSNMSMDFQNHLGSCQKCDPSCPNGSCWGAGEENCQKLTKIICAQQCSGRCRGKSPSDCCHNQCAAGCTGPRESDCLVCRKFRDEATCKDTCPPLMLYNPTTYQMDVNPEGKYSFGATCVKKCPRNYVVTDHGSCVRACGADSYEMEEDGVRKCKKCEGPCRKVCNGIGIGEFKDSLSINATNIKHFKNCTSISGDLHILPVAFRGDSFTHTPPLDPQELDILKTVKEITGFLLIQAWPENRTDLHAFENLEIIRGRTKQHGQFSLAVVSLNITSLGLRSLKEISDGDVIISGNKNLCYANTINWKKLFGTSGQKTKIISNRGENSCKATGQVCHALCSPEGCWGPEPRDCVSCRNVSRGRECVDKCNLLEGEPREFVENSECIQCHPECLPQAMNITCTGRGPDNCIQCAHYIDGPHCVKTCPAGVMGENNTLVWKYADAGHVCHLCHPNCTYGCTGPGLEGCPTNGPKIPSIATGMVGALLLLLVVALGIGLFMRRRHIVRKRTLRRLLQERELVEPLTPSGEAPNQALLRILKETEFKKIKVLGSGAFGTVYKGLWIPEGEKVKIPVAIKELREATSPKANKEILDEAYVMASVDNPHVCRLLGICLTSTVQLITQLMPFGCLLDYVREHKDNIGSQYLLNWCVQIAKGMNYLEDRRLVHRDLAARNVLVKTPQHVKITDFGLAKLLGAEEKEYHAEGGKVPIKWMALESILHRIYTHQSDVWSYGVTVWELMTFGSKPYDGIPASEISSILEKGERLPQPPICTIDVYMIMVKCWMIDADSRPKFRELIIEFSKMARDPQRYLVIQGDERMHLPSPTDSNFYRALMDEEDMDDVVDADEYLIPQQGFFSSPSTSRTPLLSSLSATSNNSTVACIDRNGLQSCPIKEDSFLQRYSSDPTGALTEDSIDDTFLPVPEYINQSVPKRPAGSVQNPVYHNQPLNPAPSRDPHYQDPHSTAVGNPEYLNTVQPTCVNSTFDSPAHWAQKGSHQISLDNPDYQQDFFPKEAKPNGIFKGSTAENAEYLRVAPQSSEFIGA
Outline: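 Using a time-resolved FRET read-out, tyrosine phosphorylation of 250 nM biotin substrate at 1 mM ATP (pH 7.4, 10 mM MgCl2, 2% DMSO, 22 °C, 30 min) was quantified against DMSO and pre-quenched controls; IC50 taken at 50% of control.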

[2] = biological target: ErbB2 insYVMA (HER2-YVMA, SEQ ID NO: 2) (Homo sapiens, UniProt P04626, INS775YVMA/P1170A); test: biochemical; settings: ErbB2 insYVMA enzyme assay
ErbB2 insYVMA (HER2-YVMA, SEQ ID NO: 2), sequence (P04626 with tags, fused parts or gaps INS775YVMA/P1170A limits assumed): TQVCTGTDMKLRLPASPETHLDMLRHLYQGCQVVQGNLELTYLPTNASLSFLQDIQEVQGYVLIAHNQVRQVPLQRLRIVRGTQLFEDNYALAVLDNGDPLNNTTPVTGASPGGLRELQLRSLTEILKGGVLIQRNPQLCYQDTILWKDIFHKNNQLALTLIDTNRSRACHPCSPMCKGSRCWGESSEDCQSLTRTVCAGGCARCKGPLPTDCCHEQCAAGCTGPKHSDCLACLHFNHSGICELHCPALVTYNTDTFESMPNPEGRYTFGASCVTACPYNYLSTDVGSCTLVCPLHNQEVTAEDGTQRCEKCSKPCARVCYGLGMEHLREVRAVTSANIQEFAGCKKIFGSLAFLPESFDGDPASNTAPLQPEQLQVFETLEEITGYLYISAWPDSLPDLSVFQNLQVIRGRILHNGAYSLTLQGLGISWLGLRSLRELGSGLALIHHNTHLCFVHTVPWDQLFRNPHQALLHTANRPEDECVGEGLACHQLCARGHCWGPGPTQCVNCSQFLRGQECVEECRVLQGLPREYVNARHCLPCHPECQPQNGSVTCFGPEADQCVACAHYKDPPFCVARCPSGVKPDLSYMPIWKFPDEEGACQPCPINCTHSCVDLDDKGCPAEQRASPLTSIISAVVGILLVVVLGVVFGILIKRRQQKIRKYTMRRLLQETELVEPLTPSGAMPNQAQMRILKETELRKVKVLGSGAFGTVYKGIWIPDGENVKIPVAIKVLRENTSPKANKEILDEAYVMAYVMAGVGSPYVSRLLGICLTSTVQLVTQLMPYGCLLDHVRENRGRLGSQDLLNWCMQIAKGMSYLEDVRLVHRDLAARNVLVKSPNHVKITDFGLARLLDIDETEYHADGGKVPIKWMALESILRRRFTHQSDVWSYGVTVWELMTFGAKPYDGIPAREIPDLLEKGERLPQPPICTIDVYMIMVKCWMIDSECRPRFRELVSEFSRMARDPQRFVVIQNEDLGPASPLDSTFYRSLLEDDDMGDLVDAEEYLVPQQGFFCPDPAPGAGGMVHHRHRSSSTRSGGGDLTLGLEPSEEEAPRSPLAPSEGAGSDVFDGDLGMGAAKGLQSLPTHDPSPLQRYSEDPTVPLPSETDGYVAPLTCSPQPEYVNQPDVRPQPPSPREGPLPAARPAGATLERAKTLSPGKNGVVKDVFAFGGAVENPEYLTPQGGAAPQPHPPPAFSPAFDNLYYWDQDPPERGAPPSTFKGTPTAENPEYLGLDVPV

EGFR wild type (EGFR WT) = EGFR wild type (EGFR WT) (Homo sapiens (Human), UniProt P00533); test: Cellular phosphorylation assay, EGF-stimulated EGFR phosphorylation in engineered NIH 3T3 cells, Phospho-EGFR DuoSet IC ELISA, Assay 5; assay type: cell-based
EGFR wild type (EGFR WT), sequence (P00533 25-1210): as the sequence (P00533 25-1210) above
Outline: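 Phospho-EGFR ELISA on lysates of engineered NIH 3T3 EGFR WT cells, IC50 derived from concentration curves. Cells plated at 20,000/well overnight, given compound dilutions 1 h at 37 °C, then rEGF 100 ng/ml for a further 10 min before lysis.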

Structure (SMILES) | IC50 (ErbB2 WT) | IC50 [1] | IC50 (EGFR) | IC50 ([2]; read-out: Assay 1 IC50) | IC50 (EGFR wild type (EGFR WT)) | IC50 ([2]; Assay 1 IC50 (nM))
Clc1cc(Nc2ncnc3cnc(N4CCN5CCOC[C@@H]5C4)nc23)ccc1Oc1ccn2ncnc2c1 [Example 431] | 63.1 nM | 232 nM | ≥ 10000 nM | 21.8 nM | ≥ 5000 nM | –
Cc1cc(Nc2ncnc3cnc(N4CCC(C)(O)CC4)nc23)c(Cl)cc1Oc1ccc2c(c1)ncn2C [Example 482] | 446 nM | 229 nM | ≥ 10000 nM | 76.7 nM | ≥ 5000 nM | –
C[C@H]1CN(c2ncc3ncnc(Nc4ccc(Oc5ccn6ncnc6c5)c(Cl)c4)c3n2)CCO1 [Example 327] | 32.1 nM | 105 nM | 3820 nM | 20.8 nM | ≥ 5000 nM | –
CON(C)CCNc1ncc2ncnc(Nc3ccc(Oc4ccc5c(c4)ncn5C)c(C)c3)c2n1 [Example 219, N2-(2-(methoxy(methyl)amino)ethyl)-N8-(3-methyl-4-((1-methyl-1H-benzo[d]imidazol-5-yl)oxy)phenyl)pyrimido[5,4-d]pyrimidine-2,8-diamine] | 27.6 nM | 6.2 nM | 2110 nM | 14.8 nM | ≥ 5000 nM | –
Cc1cc(Nc2ncnc3cnc(N4CC5(CCN(C)C5=O)C4)nc23)ccc1Oc1ccc2c(c1)ncn2C [Example 425] | 495 nM | 185 nM | ≥ 10000 nM | 68.1 nM | ≥ 5000 nM | –
Cc1cc(Nc2ncnc3cnc(N4CCN[C@H](C)C4)nc23)ccc1Oc1ccc2c(c1)ncn2C [Example 277] | 42.8 nM | 28.3 nM | ≥ 10000 nM | 16 nM | ≥ 5000 nM | –
Cc1cc(Nc2ncnc3cnc(N4CCOCC4)nc23)ccc1Oc1ccc2c(c1)ncn2C1CC1 [Example 73, N-(4-((1-cyclopropyl-1H-benzo[d]imidazol-5-yl)oxy)-3-methylphenyl)-6-morpholinopyrimido[5,4-d]pyrimidin-4-amine 2,2,2-trifluoroacetate] | 163 nM | 47.5 nM | ≥ 10000 nM | – | ≥ 5000 nM | 78 nM
Cc1cc(Nc2ncnc3cnc(N4CCC5COCC54)nc23)ccc1Oc1ccn2ncnc2c1 (centres unmarked) [Example 420] | 12.9 nM | 108 nM | 1580 nM | 8.2 nM | ≥ 5000 nM | –
Cc1cc(Nc2ncnc3cnc(N4CCC5(CCOC5)C4)nc23)ccc1Oc1ccc2c(c1)ncn2C (centres unmarked) [Example 15, N-(3-methyl-4-((1-methyl-1H-benzo[d]imidazol-5-yl)oxy)phenyl)-6-(2-oxa-7-azaspiro[4.4]nonan-7-yl)pyrimido[5,4-d]pyrimidin-4-amine] | 51.1 nM | 23.4 nM | ≥ 10000 nM | 21.4 nM | ≥ 5000 nM | –
Cc1cc(Nc2ncnc3cnc(N4CC5CCC(C4)O5)nc23)ccc1Oc1ccc2c(c1)ncn2C [Example 256] | 71.7 nM | 12.2 nM | ≥ 10000 nM | 49.1 nM | ≥ 5000 nM | –
Clc1cc(Nc2ncnc3cnc(N4C[C@@H]5C[C@H]4CO5)nc23)ccc1Oc1ccn2ncnc2c1 [Example 426] | 16.2 nM | 112 nM | 4210 nM | 16.2 nM | ≥ 5000 nM | –
Cc1cc(Nc2ncnc3cnc(N4CC[C@H](OC(F)F)C4)nc23)ccc1Oc1ccn2ncnc2c1 [Example 361] | 39.2 nM | 312 nM | 7480 nM | 26.4 nM | ≥ 5000 nM | –
CN(CC(C)(C)O)c1ncc2ncnc(Nc3ccc(Oc4ccn5ncnc5c4)c(Cl)c3)c2n1 [Example 405] | 30.3 nM | 106 nM | 4690 nM | 15.7 nM | ≥ 5000 nM | –
Cn1cnc2cc(Oc3ccc(Nc4ncnc5cnc(N6CCC7(CCOC7)C6)nc45)cc3Cl)ccc21 (centres unmarked) [Example 443] | 104 nM | 37.7 nM | ≥ 10000 nM | – | ≥ 5000 nM | 60.1 nM
Cc1cc(Nc2ncnc3cnc(N(C)[C@H]4C[C@@H](C(C)(C)O)C4)nc23)ccc1Oc1ccc2c(c1)ncn2C [Example 467] | 34.5 nM | 19.4 nM | 4790 nM | 26.4 nM | ≥ 5000 nM | –
Cc1cc(Nc2ncnc3cnc(NC4CC(F)(F)C4)nc23)ccc1Oc1ccc2c(c1)ncn2C [Example 30, N2-(3,3-difluorocyclobutyl)-N8-(3-methyl-4-((1-methyl-1H-benzo[d]imidazol-5-yl)oxy)phenyl)pyrimido[5,4-d]pyrimidine-2,8-diamine] | 196 nM | 165 nM | ≥ 10000 nM | 104 nM | ≥ 5000 nM | –

Structure (SMILES) | IC50 (ErbB2 WT) | IC50 [1] | IC50 (EGFR) | IC50 ([2]; read-out: Assay 1 IC50) | IC50 (EGFR wild type (EGFR WT)) | IC50 ([2]; Assay 1 IC50 (nM))
Cc1cc(Nc2ncnc3cnc(N(C)CC4(O)CC4)nc23)ccc1Oc1ccn2ncnc2c1 [Example 385] | 40 nM | 183 nM | 5150 nM | 18.5 nM | ≥ 5000 nM | –
O[C@H]1[C@@H]2CC[C@H]1CN(c1ncc3ncnc(Nc4ccc(Oc5ccn6ncnc6c5)c(Cl)c4)c3n1)C2 [Example 342] | 25.3 nM | 108 nM | 1670 nM | 10.4 nM | ≥ 5000 nM | –
Cc1cc(Nc2ncnc3cnc(N4CCC[C@@]45CCOC5)nc23)ccc1Oc1ccc2c(c1)ncn2C (racemic) [Example 115, rac-(R)—N-(3-methyl-4-((1-methyl-1H-benzo[d]imidazol-5-yl)oxy)phenyl)-6-(7-oxa-1-azaspiro[4.4]nonan-1-yl)pyrimido[5,4-d]pyrimidin-4-amine] | 56.7 nM | 15.6 nM | 2190 nM | 52.4 nM | ≥ 5000 nM | –
Cc1cc(Nc2ncnc3cnc(N4C[C@@H]5[C@@H](C#N)[C@@H]5C4)nc23)ccc1Oc1ccc2c(c1)ncn2C [Example 401] | 161 nM | 24.8 nM | ≥ 10000 nM | 149 nM | ≥ 5000 nM | –
Cc1cc(Nc2ncnc3cnc(N4CC5CCOC5C4)nc23)ccc1Oc1ccc2c(c1)ncn2C (centres unmarked) [Example 462] | 41.5 nM | 18.6 nM | ≥ 10000 nM | 20.3 nM | ≥ 5000 nM | –
Cc1cc(Nc2ncnc3cnc(N4CC[C@@H]4C(C)(C)O)nc23)ccc1Oc1ccn2ncnc2c1 [Example 423] | 337 nM | 1950 nM | ≥ 10000 nM | 110 nM | ≥ 5000 nM | –
Cc1cc(Nc2ncnc3cnc(O[C@@H]4CNC[C@H](F)C4)nc23)ccc1Oc1ccc2c(c1)ncn2C [Example 295] | 552 nM | 40.4 nM | ≥ 10000 nM | 115 nM | ≥ 5000 nM | –
Cc1cc(Nc2ncnc3cnc(N4CCN(C)[C@H](C)C4)nc23)ccc1Oc1ccn2ncnc2c1 [Example 136, (R)—N-(4-([1,2,4]triazolo[1,5-a]pyridin-7-yloxy)-3-methylphenyl)-6-(3,4-dimethylpiperazin-1-yl)pyrimido[5,4-d]pyrimidin-4-amine] | 59.3 nM | 315 nM | ≥ 10000 nM | 55.3 nM | ≥ 5000 nM | –
Clc1cc(Nc2ncnc3cnc(N4C[C@H]5C[C@@H]4CO5)nc23)ccc1Oc1ccn2ncnc2c1 [Example 418] | 103 nM | 229 nM | ≥ 10000 nM | 42.8 nM | ≥ 5000 nM | –
Cc1cc(Nc2ncnc3cnc(N4CCOC5CC54)nc23)ccc1Oc1ccn2ncnc2c1 (centres unmarked) [Example 382] | 68.9 nM | 397 nM | 6010 nM | 34.5 nM | ≥ 5000 nM | –
COC1CCN(c2ncc3ncnc(Nc4ccc(Oc5ccn6ncnc6c5)c(C)c4)c3n2)CC1 [Example 411] | 56.2 nM | 604 nM | ≥ 10000 nM | 26.3 nM | ≥ 5000 nM | –
Cc1cc(Nc2ncnc3cnc(N(C)CC(F)F)nc23)ccc1Oc1ccn2ncnc2c1 [Example 372] | 70.7 nM | 153 nM | 7310 nM | 15.1 nM | ≥ 5000 nM | –
Cc1cc(Nc2ncnc3cnc(O[C@H]4CN(C)CC[C@@H]4F)nc23)ccc1Oc1ccc2c(c1)ncn2C [Example 296] | 141 nM | 68.2 nM | ≥ 10000 nM | 59.6 nM | ≥ 5000 nM | –
Clc1cc(Nc2ncnc3cnc(N4CCN5CCOC[C@H]5C4)nc23)ccc1Oc1ccn2ncnc2c1 [Example 430] | 25.5 nM | 31.9 nM | 4030 nM | 8.6 nM | ≥ 5000 nM | –
Cn1cnc2cc(Oc3ccc(Nc4ncnc5cnc(N6CCOC7(CC7)C6)nc45)cc3Cl)ccc21 [Example 449] | 152 nM | 6.2 nM | ≥ 10000 nM | 157 nM | ≥ 5000 nM | –
